In patent US5389639A, “Amino alkanoic esters of rapamycin” (American Home Products Company, priority 1993, dated 1995):
Read-outs that look alike come from different tables or passages of the source.

What was measured:
[1] = tested on: pinch skin graft from male BALB/c donors transplanted to male C3H(H-2K) recipients; assay: Survival time of pinch skin graft; format: in vivo, mouse; details: 4 mg/kg; intraperitoneally or orally; untreated usually rejected within 6-7 days
Experimental: (§1) Immunosuppressive activity for representative compounds of this invention was evaluated in an in vitro standard pharmacological test procedure to measure lymphocyte proliferation (LAF) and in an in vivo standard pharmacological test procedure which evaluated the survival time of a pinch skin graft.
Representative compounds of this invention were also evaluated in an in vivo test procedure designed to determine the survival time of pinch skin graft from male BALB/c donors transplanted to male C3 H(H-2K) recipients. The method is adapted from Billingham R. E. and Medawar P. B., J. Exp. Biol. 28:385-402, (1951). Briefly, a pinch skin graft from the donor was grafted on the dorsum of the recipient as a allograft, and an isograft was used as control in the same region. The recipients were treated with either varying concentrations of test compounds intraperitoneally or orally. Rapamycin was used as a test control. Untreated recipients serve as rejection control. The graft was monitored daily and observations were recorded until the graft became dry and formed a blackened scab. This was considered as the rejection day. The mean graft survival time (number of days ±S.D.) of the drug treatment group was compared with the control group. […] Results are expressed as the mean survival time in days. Untreated (control) pinch skin grafts are usually rejected within 6-7 days. The results shown in Table 1 are based on a dose of 4 mg/kg of test compound. A survival time of 11.67±0.63 days was obtained for rapamycin at 4 mg/kg.

[2] = tested on: cells from the thymus of normal BALB/c mice (lymphocyte proliferation); assay: Comitogen-induced thymocyte proliferation procedure (LAF); format: cell-based; details: Mus musculus
Experimental: as §1
The comitogen-induced thymocyte proliferation procedure (LAF) was used as an in vitro measure of the immunosuppressive effects of representative compounds. Briefly, cells from the thymus of normal BALB/c mice are cultured for 72 hours with PHA and IL-1 and pulsed with tritiated thymidine during the last six hours. Cells are cultured with and without various concentrations of rapamycin, cyclosporin A, or test compound. Cells are harvested and incorporated radioactivity is determined. Inhibition of lymphoproliferation is assessed as percent change in counts per minute from non-drug treated controls. For each compound evaluated, rapamycin was also evaluated for the purpose of comparison. An IC50 was obtained for each test compound as well as for rapamycin. […] The results obtained for the representative compounds of this invention are presented as IC50s.

[3] = Relative oral potency: oral and i.p. ED50s in the skin graft test procedure; format: in vivo; details: mouse, ratio of oral and i.p. ED50s, p.o. 40, 10, 2.5 mg/kg, i.p. 4, 1, 0.25 mg/kg, 6 consecutive days, data obtained in cremophor, lower ratio = greater oral bioavailability
Experimental: The relative oral potency is determined by comparing the oral and i.p. ED50s obtained in the skin graft standard pharmacological test procedure. Briefly, the compound to be tested is evaluated at the doses of 40, 10, and 2.5 mg/kg for p.o. administration and 4, 1, and 0.25 mg/kg for i.p. administration, both administered for 6 consecutive days in the skin graft test procedure so that a dose response curve can be generated for both oral and i.p. administration. The data are subjected to a parallel line analysis and an oral and i.p. ED50 is calculated for the compound tested, and the ED50s are expressed as a ratio according to the following formula: [formula]
When comparing oral potency for different compounds that have been evaluated, the lower the ratio, the greater the oral bioavailability. The oral bioavailability serves as a measure of oral potency.

[4] = tested on: experimental allergic encephalomyelitis; details: model for multiple sclerosis; cited from earlier work
adjuvant arthritis = details: model for rheumatoid arthritis; cited from earlier work
Candida albicans = details: particularly against Candida albicans, both in vitro and in vivo; cited from earlier work
[5] = 72 hours with PHA and IL-1, tritiated thymidine during last six hours, read-out: LAF IC50

SMILES	Skin Graft mean survival time (days ± SD) [1] [days]	IC50 [2, 5] [nM]	other results
CO[C@H]1C[C@@H]2CC[C@@H](C)[C@@](O)(O2)C(=O)C(=O)N2CCCC[C@H]2C(=O)O[C@H]([C@H](C)C[C@@H]2CC[C@@H](OC(=O)C[C@H](NC(=O)OCc3ccccc3)C(=O)O)[C@H](OC)C2)CC(=O)[C@H](C)/C=C(\C)[C@@H](O)[C@@H](OC)C(=O)[C@H](C)C[C@H](C)/C=C/C=C/C=C/1C [Example 1, Rapamycin 42-ester with (S)-3-carboxy-3-[[[phenylmethoxy]carbonyl]amino]-propanoic acid]	10.00 ± 0.00	10.7	
CO[C@H]1C[C@@H]2CC[C@@H](C)[C@@](O)(O2)C(=O)C(=O)N2CCCC[C@H]2C(=O)O[C@H]([C@H](C)C[C@@H]2CC[C@@H](OC(=O)C[C@H](N)C(=O)O)[C@H](OC)C2)CC(=O)[C@H](C)/C=C(\C)[C@@H](O)[C@@H](OC)C(=O)[C@H](C)C[C@H](C)/C=C/C=C/C=C/1C [Example 3, Rapamycin 42-ester with (S)-3-amino-3-carboxypropanoic acid]	10.17 ± 0.75	2.5	
CCCOC(=O)N[C@@H](CCC(=O)O[C@@H]1CC[C@@H](C[C@@H](C)[C@@H]2CC(=O)[C@H](C)/C=C(\C)[C@@H](O)[C@@H](OC)C(=O)[C@H](C)C[C@H](C)/C=C/C=C/C=C(\C)[C@@H](OC)C[C@@H]3CC[C@@H](C)[C@@](O)(O3)C(=O)C(=O)N3CCCC[C@H]3C(=O)O2)C[C@H]1OC)C(=O)O [Example 4, Rapamycin 42-ester with (S)-4-carboxy-4-[[[propyloxy]carbonyl]amino]butanoic acid]	11.00 ± 1.00	3.2	
CCCOC(=O)N[C@H](CCC(=O)O[C@@H]1CC[C@@H](C[C@@H](C)[C@@H]2CC(=O)[C@H](C)/C=C(\C)[C@@H](O)[C@@H](OC)C(=O)[C@H](C)C[C@H](C)/C=C/C=C/C=C(\C)[C@@H](OC)C[C@@H]3CC[C@@H](C)[C@@](O)(O3)C(=O)C(=O)N3CCCC[C@H]3C(=O)O2)C[C@H]1OC)C(=O)O [Example 5, Rapamycin 42-ester with (R)-4-carboxy-4[[[propyloxy]carbonyl]amino]-butanoic acid]	10.83 ± 0.75	3.9	
CO[C@H]1C[C@@H]2CC[C@@H](C)[C@@](O)(O2)C(=O)C(=O)N2CCCC[C@H]2C(=O)O[C@H]([C@H](C)C[C@@H]2CC[C@@H](OC(=O)CC[C@H](N)C(=O)O)[C@H](OC)C2)CC(=O)[C@H](C)/C=C(\C)[C@@H](O)[C@@H](OC)C(=O)[C@H](C)C[C@H](C)/C=C/C=C/C=C/1C [Example 7, Rapamycin 42-ester with (S)-4-amino-4-carboxy-butanoic acid]	10.80 ± 0.40	14	
CO[C@H]1C[C@@H]2CC[C@@H](C)[C@@](O)(O2)C(=O)C(=O)N2CCCC[C@H]2C(=O)O[C@H]([C@H](C)C[C@@H]2CC[C@@H](OC(=O)CC[C@@H](N)C(=O)O)[C@H](OC)C2)CC(=O)[C@H](C)/C=C(\C)[C@@H](O)[C@@H](OC)C(=O)[C@H](C)C[C@H](C)/C=C/C=C/C=C/1C [Example 9, Rapamycin 42-ester with (R)-4-amino-4-carboxybutanoic acid]	11.20 ± 1.00	7.8	
CO[C@H]1C[C@@H]2CC[C@@H](C)[C@@](O)(O2)C(=O)C(=O)N2CCCC[C@H]2C(=O)O[C@H]([C@H](C)C[C@@H]2CC[C@@H](OC(=O)CC[C@H](NC(=O)OCc3ccccc3)C(=O)O)[C@H](OC)C2)CC(=O)[C@H](C)/C=C(\C)[C@@H](O)[C@@H](OC)C(=O)[C@H](C)C[C@H](C)/C=C/C=C/C=C/1C [Example 10]	10.17 ± 0.41	27.1	
CO[C@H]1C[C@@H]2CC[C@@H](C)[C@@](O)(O2)C(=O)C(=O)N2CCCC[C@H]2C(=O)O[C@H]([C@H](C)C[C@@H]2CC[C@@H](OC(=O)CC[C@H](N)C(=O)OC(C)(C)C)[C@H](OC)C2)CC(=O)[C@H](C)/C=C(\C)[C@@H](O)[C@@H](OC)C(=O)[C@H](C)C[C@H](C)/C=C/C=C/C=C/1C [Example 11, Rapamycin 42-ester with-(S)-4-amino-5-(1,1-dimethylethoxy)-5-oxo-pentanoic acid]	11.50 ± 1.05	1.1	selectivity ratio [3]: 5.6
CO[C@H]1C[C@@H]2CC[C@@H](C)[C@@](O)(O2)C(=O)C(=O)N2CCCC[C@H]2C(=O)O[C@H]([C@H](C)C[C@@H]2CC[C@@H](OC(=O)CC[C@H](NC(=O)OC(C)(C)C)C(=O)OC(C)(C)C)[C@H](OC)C2)CC(=O)[C@H](C)/C=C(\C)[C@@H](O)[C@@H](OC)C(=O)[C@H](C)C[C@H](C)/C=C/C=C/C=C/1C [Rapamycin 42-ester with (S)-5-tert-butoxy-4-tert-butoxycarbonylamino-5-oxo-pentanoic acid, reference compound]			selectivity ratio [3]: 188
CO[C@H]1C[C@@H]2CC[C@@H](C)[C@@](O)(O2)C(=O)C(=O)N2CCCC[C@H]2C(=O)O[C@H]([C@H](C)C[C@@H]2CC[C@@H](O)[C@H](OC)C2)CC(=O)[C@H](C)/C=C(\C)[C@@H](O)[C@@H](OC)C(=O)[C@H](C)C[C@H](C)/C=C/C=C/C=C/1C [rapamycin]	11.67 ± 0.63		effect in the experimental allergic encephalomyelitis model [4]: effective; effect in the adjuvant arthritis model (adjuvant arthritis): effective; IC50 ([2]; read-out: IC50 of rapamycin as comparator (LAF)): 2.8 to 11.6 nM; antifungal activity (Candida albicans): antifungal activity
